# Measurements: PubChem BioAssay (NCI)
#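 Tested at 5 concentrations; 48 h exposure; 96-well plates; endpoints linearly interpolated, else capped at highest concentration. Here, GI50 denotes the concentration required for 50% inhibition of growth. TGI: total growth inhibition.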
# Assays:
# Test in all cases: NCI-60 cell line screen, 48 h
# UACC-62 melanoma = system: UACC-62 melanoma
# HS 578T breast = system: HS 578T breast
# RXF 393 renal = system: RXF 393 renal
# DU-145 prostate = system: DU-145 prostate
# CCRF-CEM leukemia = system: CCRF-CEM leukemia
# M14 melanoma = system: M14 melanoma
# OVCAR-8 ovarian = system: OVCAR-8 ovarian
# PC-3 prostate = system: PC-3 prostate
# OVCAR-3 ovarian = system: OVCAR-3 ovarian
# SK-MEL-5 melanoma = system: SK-MEL-5 melanoma
# SR leukemia = system: SR leukemia
# NCI-H522 lung = system: NCI-H522 lung
# SF-268 CNS = system: SF-268 CNS
# K-562 leukemia = system: K-562 leukemia
# OVCAR-5 ovarian = system: OVCAR-5 ovarian
# EKVX NSCLC = system: EKVX NSCLC
# CAKI-1 renal = system: CAKI-1 renal
# COLO 205 colon = system: COLO 205 colon
# IGROV1 ovarian = system: IGROV1 ovarian
# MDA-MB-435 = system: MDA-MB-435
# SK-MEL-28 melanoma = system: SK-MEL-28 melanoma
# HCC-2998 colon = system: HCC-2998 colon
# MDA-MB-231 breast = system: MDA-MB-231 breast
# UO-31 renal = system: UO-31 renal
# HOP-62 NSCLC = system: HOP-62 NSCLC
# SF-295 CNS = system: SF-295 CNS
# ACHN renal = system: ACHN renal
# SNB-75 CNS = system: SNB-75 CNS
# BT-549 breast = system: BT-549 breast
# A498 renal = system: A498 renal
# SNB-19 CNS = system: SNB-19 CNS
# OVCAR-4 ovarian = system: OVCAR-4 ovarian
# SF-539 CNS = system: SF-539 CNS
# NCI-H460 lung = system: NCI-H460 lung
# HCT-15 colon = system: HCT-15 colon
# U251 CNS = system: U251 CNS
# NCI-H23 lung = system: NCI-H23 lung
# SW-620 colon = system: SW-620 colon
# TK-10 renal = system: TK-10 renal
# MDA-MB-468 breast = system: MDA-MB-468 breast
# SN12C renal = system: SN12C renal
# UACC-257 melanoma = system: UACC-257 melanoma
# MOLT-4 leukemia = system: MOLT-4 leukemia
# KM12 colon = system: KM12 colon
# HL-60(TB) leukemia = system: HL-60(TB) leukemia
# RPMI-8226 leukemia = system: RPMI-8226 leukemia
# HCT-116 colon = system: HCT-116 colon
# A549 NSCLC = system: A549 NSCLC
# SK-OV-3 ovarian = system: SK-OV-3 ovarian
# HT29 colon = system: HT29 colon
# MCF7 breast = system: MCF7 breast
# LOX IMVI melanoma = system: LOX IMVI melanoma
# NCI-H226 lung = system: NCI-H226 lung
# 786-0 renal = system: 786-0 renal
# MALME-3M melanoma = system: MALME-3M melanoma
# HOP-92 NSCLC = system: HOP-92 NSCLC
compound,measurement,setting,value
Clc1cccc(-c2ccc(OCCCN3CCN(c4ccncc4)CC3)cc2)c1,GI50,UACC-62 melanoma,1.73 µM
same,TGI,UACC-62 melanoma,3.17 µM
same,GI50,HS 578T breast,1.96 µM
same,TGI,HS 578T breast,5.11 µM
same,GI50,RXF 393 renal,1.24 µM
same,TGI,RXF 393 renal,2.66 µM
same,GI50,DU-145 prostate,2.09 µM
same,TGI,DU-145 prostate,4.79 µM
same,GI50,CCRF-CEM leukemia,1.49 µM
same,TGI,CCRF-CEM leukemia,3.88 µM
same,GI50,M14 melanoma,1.76 µM
same,TGI,M14 melanoma,3.26 µM
same,GI50,OVCAR-8 ovarian,2.34 µM
same,TGI,OVCAR-8 ovarian,5.81 µM
same,GI50,PC-3 prostate,1.94 µM
same,TGI,PC-3 prostate,6.15 µM
same,GI50,OVCAR-3 ovarian,1.79 µM
same,TGI,OVCAR-3 ovarian,3.56 µM
same,GI50,SK-MEL-5 melanoma,1.65 µM
same,TGI,SK-MEL-5 melanoma,3.04 µM
same,GI50,SR leukemia,0.886 µM
same,TGI,SR leukemia,> 100 µM
same,GI50,NCI-H522 lung,1.87 µM
same,TGI,NCI-H522 lung,3.79 µM
same,GI50,SF-268 CNS,2.08 µM
same,TGI,SF-268 CNS,4.69 µM
same,GI50,K-562 leukemia,1.63 µM
same,TGI,K-562 leukemia,9.43 µM
same,GI50,OVCAR-5 ovarian,1.93 µM
same,TGI,OVCAR-5 ovarian,4.35 µM
same,GI50,EKVX NSCLC,1.85 µM
same,TGI,EKVX NSCLC,4.65 µM
same,GI50,CAKI-1 renal,1.67 µM
same,TGI,CAKI-1 renal,3.33 µM
same,GI50,COLO 205 colon,1.64 µM
same,TGI,COLO 205 colon,3.08 µM
same,GI50,IGROV1 ovarian,1.71 µM
same,TGI,IGROV1 ovarian,3.22 µM
same,GI50,MDA-MB-435,1.7 µM
same,TGI,MDA-MB-435,3.16 µM
same,GI50,SK-MEL-28 melanoma,1.82 µM
same,TGI,SK-MEL-28 melanoma,3.52 µM
same,GI50,HCC-2998 colon,1.82 µM
same,TGI,HCC-2998 colon,3.25 µM
same,GI50,MDA-MB-231 breast,1.57 µM
same,TGI,MDA-MB-231 breast,2.98 µM
same,GI50,UO-31 renal,1.65 µM
same,TGI,UO-31 renal,3.6 µM
same,GI50,HOP-62 NSCLC,1.67 µM
same,TGI,HOP-62 NSCLC,3.12 µM
same,GI50,SF-295 CNS,1.75 µM
same,TGI,SF-295 CNS,3.24 µM
same,GI50,ACHN renal,1.75 µM
same,TGI,ACHN renal,3.16 µM
same,GI50,SNB-75 CNS,1.87 µM
same,TGI,SNB-75 CNS,7.27 µM
same,GI50,BT-549 breast,2.5 µM
same,TGI,BT-549 breast,5.92 µM
same,GI50,A498 renal,5.64 µM
same,TGI,A498 renal,19.3 µM
same,GI50,SNB-19 CNS,1.94 µM
same,TGI,SNB-19 CNS,3.98 µM
same,GI50,OVCAR-4 ovarian,2.6 µM
same,TGI,OVCAR-4 ovarian,8.32 µM
same,GI50,SF-539 CNS,1.49 µM
same,TGI,SF-539 CNS,2.85 µM
same,GI50,NCI-H460 lung,1.74 µM
same,TGI,NCI-H460 lung,3.31 µM
same,GI50,HCT-15 colon,1.23 µM
same,TGI,HCT-15 colon,2.55 µM
same,GI50,U251 CNS,1.57 µM
same,TGI,U251 CNS,2.99 µM
same,GI50,NCI-H23 lung,2.07 µM
same,TGI,NCI-H23 lung,5.09 µM
same,GI50,SW-620 colon,1.7 µM
same,TGI,SW-620 colon,3.27 µM
same,GI50,TK-10 renal,2.73 µM
same,TGI,TK-10 renal,8.21 µM
same,GI50,MDA-MB-468 breast,1.66 µM
same,TGI,MDA-MB-468 breast,3.26 µM
same,GI50,SN12C renal,1.7 µM
same,TGI,SN12C renal,3.36 µM
same,GI50,UACC-257 melanoma,2.08 µM
same,TGI,UACC-257 melanoma,4.14 µM
same,GI50,MOLT-4 leukemia,2.04 µM
same,TGI,MOLT-4 leukemia,4.71 µM
same,GI50,KM12 colon,1.77 µM
same,TGI,KM12 colon,3.28 µM
same,GI50,HL-60(TB) leukemia,1.7 µM
same,TGI,HL-60(TB) leukemia,4.48 µM
same,GI50,RPMI-8226 leukemia,1.89 µM
same,TGI,RPMI-8226 leukemia,4.91 µM
same,GI50,HCT-116 colon,1.5 µM
same,TGI,HCT-116 colon,3.01 µM
same,GI50,A549 NSCLC,1.71 µM
same,TGI,A549 NSCLC,3.26 µM
same,GI50,SK-OV-3 ovarian,2.81 µM
same,TGI,SK-OV-3 ovarian,10.4 µM
same,GI50,HT29 colon,1.55 µM
same,TGI,HT29 colon,3.18 µM
same,GI50,MCF7 breast,1.5 µM
same,TGI,MCF7 breast,3.04 µM
same,GI50,LOX IMVI melanoma,1.62 µM
same,TGI,LOX IMVI melanoma,3.03 µM
same,GI50,NCI-H226 lung,3.51 µM
same,TGI,NCI-H226 lung,15.1 µM
same,GI50,786-0 renal,1.7 µM
same,TGI,786-0 renal,3.07 µM
same,GI50,MALME-3M melanoma,1.76 µM
same,TGI,MALME-3M melanoma,3.22 µM
same,GI50,HOP-92 NSCLC,1.28 µM
same,TGI,HOP-92 NSCLC,4.28 µM
